Reference: ChEMBL document CHEMBL5625213, “Novel acridine-based LSD1 inhibitors enhance immune response in gastric cancer” (Eur J Med Chem, 2023)
pIC50: −log10 of the molar value. Each block holds one compound with its values, some of them ahead of it. Activity calls are given as the source filed them. No cut-off for these calls is given here.

Assays:
[1] = molecular target: T1, Lysine-specific histone demethylase 1A (Homo sapiens, UniProt O60341); assay: Inhibition of recombinant LSD1 ( unknown origin) expressed in Escherichia coli BL21 (DE3) cells using H3K4me2 peptide as substrate incubated for 30 mins in presence of FAD by fluorescence microplate reader analysis
[2] = tested on: BGC-823; assay: Downregulation of PD-L1 level in human BGC-823 cells incubated for 5 days by Western blot analysis; assay type: functional, cell-based; settings: dose 0.5-2 µM, time 5.0 day
[3] = tested on: BGC-823; assay: Cytotoxicity against human BGC-823 cells co-cultured with T cells assessed as reduction in cell viability pretreated for 5 days followed by co-incubation with T cells for 4 days by CCK8 assay; assay type: functional, cell-based; settings: dose 0.5-2 µM, time 5.0 day
[4] = tested on: BGC-823; assay: Inhibition of stemness in human BGC-823 cells assessed as inhibition of OCT4 expression at 0.5 to 2 uM by Western blot analysis; assay type: functional, cell-based; settings: dose 0.5-2 µM
[5] = molecular target: T1, Lysine-specific histone demethylase 1A; assay: Binding affinity to LSD1 in human BGC-823 cells assessed as thermal stability at 2 uM measured at 40 to 55 degreeC by cellular thermal shift assay; assay type: cell-based
[6] = tested on: BGC-823; assay: Downregulation of PD-L1 mRNA level in human BGC-823 cells at 0.5 to 2 uM incubated for 5 days by qRT-PCR analysis; assay type: functional, cell-based; settings: dose 0.5-2 µM, time 5.0 day
[7] = tested on: MFC; assay: Antitumor activity against MFC cells implanted in 615 mouse assessed as increase in IL-2 mRNA level at 15 to 50 mg/kg, IG administered for 14 days by qRT-PCR analysis; assay type: functional, organism-based; settings: dose 15-50 mg/kg, time 14.0 day
[8] = tested on: BGC-823; assay: Cytotoxicity against human BGC-823 cells co-cultured with T cells assessed as increase in IFN-gamma mRNA level at 1 uM by qRT-PCR analysis; assay type: functional, cell-based
[9] = molecular target: T1, Lysine-specific histone demethylase 1A; assay: Inhibition of LSD1 in human BGC-823 cells assessed as induction of H3K4me1 accumulation at 0.5 to 2 uM incubated for 5 days by Western blot analysis; assay type: cell-based; settings: dose 0.5-2 µM, time 5.0 day
[10] = tested on: MFC; assay: Downregulation of PD-L1 level in MFC cells incubated for 5 days by Western blot analysis; assay type: functional, cell-based; settings: Mus musculus, dose 0.5-2 µM, time 5.0 day
[11] = tested on: BGC-823; assay: Inhibition of stemness in human BGC-823 cells assessed as inhibition of Nanog expression at 0.5 to 2 uM by Western blot analysis; assay type: functional, cell-based; settings: dose 0.5-2 µM
[12] = tested on: MFC; assay: Antitumor activity against MFC cells implanted in 615 mouse assessed as increase in TNF-alpha mRNA level at 15 to 50 mg/kg, IG administered for 14 days by qRT-PCR analysis; assay type: functional, organism-based; settings: dose 15-50 mg/kg, time 14.0 day
[13] = molecular target: T1, Lysine-specific histone demethylase 1A; assay: Inhibition of LSD1 in human BGC-823 cells assessed as induction of H3K4me2 accumulation at 0.5 to 2 uM incubated for 5 days by Western blot analysis; assay type: cell-based; settings: dose 0.5-2 µM, time 5.0 day
[14] = tested on: MFC; assay: Antitumor activity against MFC cells implanted in 615 mouse assessed as inhibition of tumor growth administered intragastrically for 14 days; assay type: functional, cell-based; settings: dose 15-50 mg/kg, route ig, time 14.0 day
[15] = tested on: BGC-823; assay: Cytotoxicity against human BGC-823 cells co-cultured with T cells assessed as increase in IL-2 mRNA level at 1 uM by qRT-PCR analysis; assay type: functional, cell-based
[16] = tested on: MFC; assay: Antiproliferative activity against MFC cells assessed as inhibition of cell proliferation at 2 uM incubated for 5 days by CCK8 assay; assay type: functional; settings: Mus musculus, 120 h, time 5 day
[17] = tested on: MFC; assay: Antitumor activity against MFC cells implanted in 615 mouse assessed as reduction in tumor size at 15 to 50 mg/kg, IG administered for 14 days; assay type: functional, organism-based; settings: dose 15-50 mg/kg, time 14.0 day
[18] = Toxicity in 615 mouse implanted with MFC cells assessed as liver damage upto 50 mg/kg, IG measured after 14 days; assay type: organism-based; settings: in vivo, po, 336 h, time 14 day
[19] = tested on: BGC-823; assay: Cytotoxicity against human BGC-823 cells co-cultured with T cells assessed as increase in 4-1BB mRNA level at 1 uM by qRT-PCR analysis; assay type: functional, cell-based
[20] = tested on: MFC; assay: Downregulation of PD-L1 mRNA level in MFC cells at 0.5 to 2 uM incubated for 5 days by qRT-PCR analysis; assay type: functional, cell-based; settings: Mus musculus, dose 0.5-2 µM, time 5.0 day
[21] = tested on: MFC; assay: Antitumor activity against MFC cells implanted in 615 mouse assessed as decrease in PD-L1 expression in tumor administered intragastrically for 14 days by Western blot analysis; assay type: functional, cell-based; settings: dose 15-50 mg/kg, route ig, time 14.0 day
[22] = molecular target: Programmed cell death protein 1/Programmed cell death 1 ligand 1 (Homo sapiens) (UniProt Q15116+Q9NZQ7); assay: Inhibition of Fc-tagged recombinant human PD-1 binding to PD-L1 in human BGC-823 cells incubated for 5 days by DAPI staining based confocal microscopic analysis; assay type: cell-based; settings: dose 0.5-2 µM, time 5.0 day
[23] = tested on: BGC-823; assay: Cytotoxicity against human BGC-823 cells co-cultured with T cells assessed as increase in CCR10 mRNA level at 1 uM by qRT-PCR analysis; assay type: functional, cell-based
[24] = tested on: BGC-823; assay: Cytotoxicity against human BGC-823 cells co-cultured with T cells assessed as increase in TNF-alpha mRNA level at 1 uM by qRT-PCR analysis; assay type: functional, cell-based
[25] = tested on: BGC-823; assay: Inhibition of stemness in human BGC-823 cells assessed as inhibition of CD44 expression at 0.5 to 2 uM by Western blot analysis; assay type: functional, cell-based; settings: dose 0.5-2 µM
[26] = tested on: BGC-823; assay: Inhibition of stemness in human BGC-823 cells assessed as inhibition of SOX2 expression at 0.5 to 2 uM by Western blot analysis; assay type: functional, cell-based; settings: dose 0.5-2 µM
[27] = tested on: BGC-823; assay: Inhibition of cell migration in human BGC-823 cells at 0.5 to 2 uM measured upto 48 hrs by fluorescence microscope based wound healing assay; assay type: functional; settings: dose 0.5-2 µM
[28] = Toxicity in 615 mouse implanted with MFC cells assessed as change in body weight upto 50 mg/kg, IG measured after 14 days; assay type: organism-based; settings: in vivo, po, 336 h, time 14 day
[29] = tested on: MFC; assay: Antitumor activity against MFC cells implanted in 615 mouse assessed as increase in IFN-gamma mRNA level at 15 to 50 mg/kg, IG administered for 14 days by qRT-PCR analysis; assay type: functional, organism-based; settings: dose 15-50 mg/kg, time 14.0 day
[30] = tested on: BGC-823; assay: Cytotoxicity against human BGC-823 cells co-cultured with T cells assessed as increase in CCR7 mRNA level at 1 uM by qRT-PCR analysis; assay type: functional, cell-based
[31] = Toxicity in 615 mouse implanted with MFC cells assessed as kidney damage upto 50 mg/kg, IG measured after 14 days; assay type: organism-based; settings: in vivo, po, 336 h, time 14 day

pIC50 [1]: < 5.00
SMILES: CN(C)c1ccc(Nc2c3ccccc3nc3c(N(C)C)cccc23)cc1

pIC50 [1]: < 5.00
SMILES: CN(C)Cc1ccc(Nc2c3ccccc3nc3ccccc23)cc1

pIC50 [1]: < 5.00
SMILES: CN(C)C(=O)c1ccc(Nc2c3ccccc3nc3ccccc23)cc1

pIC50 [1]: < 5.00
SMILES: Cc1ccc2c(Nc3ccc(N(C)C)cc3)c3ccc([N+](=O)[O-])cc3nc2c1C

pIC50 [1]: 7.89
Activity [5]: Active
inhibition [9]: Active
inhibition [13]: Active
SMILES: Cc1ccc2nc3c(C)c(C)ccc3c(Nc3ccc(N(C)C)cc3)c2c1
Activity [2]: Dose-Dependent Effect
Activity [3]: Dose-Dependent Effect
inhibition [4]: Active
Activity [6]: Active
Activity [7]: Active
Activity [8]: Active
Activity [10]: Dose-Dependent Effect
inhibition [11]: Active
Activity [12]: Active
Activity [14]: Dose-Dependent Effect
Activity [15]: Active
inhibition at 2 µM [16]: > 10%
Activity [17]: Active
Activity [18]: Non-Toxic
Activity [19]: Active
Activity [20]: Active
Activity [21]: Dose-Dependent Effect
inhibition [22]: Dose-Dependent Effect
Activity [23]: Active
Activity [24]: Active
inhibition [25]: Active
inhibition [26]: Active
inhibition [27]: Active
Activity [28]: Non-Toxic
Activity [29]: Active
Activity [30]: Active
Activity [31]: Non-Toxic
